Experimental data: US20210000912A1, “Compositions And Methods For Prophylaxis Or Treatment Of Pain” (Interk Peptide Therapeutics Limited, priority 2017, published 2021)

How the values were obtained:
[1] = system: CFA-injected mice; experiment: Grip strength testing in CFA study; format: in vivo, C57Bl/6 mice
Procedure: Forepaw grip strength was determined using a grip strength meter (DFIS-2 series digital force gauge, Columbus Instruments, Columbus, Ohio). The animals' forelimbs were placed on a horizontal bar connected to a force gauge. The animal was the gently pulled away from the bar and the peak force required for a release was recorded. Each mouse was tested 3 times, with a 1 min inter-trial interval (Martinez-Huenchullan, S. F., et al., “Utility and reliability of non-invasive muscle function tests in high-fat-fed mice”. Experimental Physiology, 2017. 102(7): p. 773-778). The average peak tension (g), and tension normalised to body weight were compared.

[2] = Resistance to simulated gastric fluid; format: in vitro ADME
Procedure: Test 14 Arg peptides consisting of 14 contiguous L- or D-arginine amino acids were tested for resistance to simulated gastric fluid (porcine pepsin in a HCl and NaCl solution) at a pH of 2.01 for a period of 24 hours. Negligible degradation of each peptide was observed by exposure to the simulated gastric fluid over the 24 hour test period.

[3] = system: CFA-injected mice; experiment: CFA inflammatory pain model, incapacitance testing
[4] = molecular target: T1, c-Src (h) (Homo sapiens, UniProt P12931); experiment: c-Src kinase activity assay, cell free; format: biochemical
T1 construct: purchased Eurofins Pharma Discovery Services UK Ltd (contract assay service)
T1 sequence (P12931 whole entry): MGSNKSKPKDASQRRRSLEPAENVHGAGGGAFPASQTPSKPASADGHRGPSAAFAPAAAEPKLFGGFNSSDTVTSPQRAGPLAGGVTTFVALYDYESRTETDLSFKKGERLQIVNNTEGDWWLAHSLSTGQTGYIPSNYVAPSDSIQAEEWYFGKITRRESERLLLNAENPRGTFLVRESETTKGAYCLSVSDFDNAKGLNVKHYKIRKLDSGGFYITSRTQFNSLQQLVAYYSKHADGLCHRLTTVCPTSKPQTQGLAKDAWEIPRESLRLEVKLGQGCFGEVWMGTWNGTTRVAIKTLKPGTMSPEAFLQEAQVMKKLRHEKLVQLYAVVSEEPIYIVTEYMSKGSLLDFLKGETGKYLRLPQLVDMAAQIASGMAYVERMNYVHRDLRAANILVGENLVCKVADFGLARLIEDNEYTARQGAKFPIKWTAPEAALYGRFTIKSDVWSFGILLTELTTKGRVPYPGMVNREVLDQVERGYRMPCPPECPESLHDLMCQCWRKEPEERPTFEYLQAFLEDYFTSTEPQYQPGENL
Procedure: (§1) The capacity of test peptides to inhibit the activity of the kinases PKG1α, PKG1β, and Src family kinases in a cell free assay was assessed. The test peptides were amidated at their C-terminal end (indicated by “—NH2”) unless otherwise noted. Kinase activity assays were conducted by Eurofins Pharma Discovery Services UK Ltd (Dundee Technology Park, Dundee, United Kingdom) and Reaction Biology Corp. (Malvern, Pa., USA).
(§2) All test peptides are prepared to 50× final assay concentration in 100% DMSO. This working stock of the test compound is added to assay wells as the first component in the reaction, followed by the remaining components of the respective assay protocols described below. There is no pre-incubation step between the test peptide and the kinase prior to initiation of the reaction. The kinases are diluted in buffer (20 mM MOPS, 1 mM EDTA, 0.01% Brij-35, 5% Glycerol, 0.1% β-mercaptoethanol, 1 mg/mL BSA) prior to addition to the reaction mix.
(§3) Positive control wells contain all components of the reaction, except the test peptide of interest. However, DMSO (at a final concentration of 2%) is included in positive control wells to control for solvent effects. Negative control wells contain all components of the reaction, with a reference inhibitor (staurosporine) replacing the test peptide. This abolishes kinase activity and establishes a base-line (0% kinase activity). Kinase assay protocols (Eurofins Pharma Discovery Services UK Ltd, Dundee Technology Park, Dundee, United Kingdom) are described below. Of the Src family kinases, only the assay protocol for c-Src is shown.
(§4) c-Src (h) is incubated with 8 mM MOPS pH 7.0, 0.2 mM EDTA, 250 μM KVEKIGEGTYGVVYK (Cdc2 peptide), 10 mM MgAcetate and [γ-^33P]-ATP (specific activity approx. 500 cpm/pmol, concentration as required). The reaction is initiated by the addition of the MgATP mix. After incubation for 40 minutes at room temperature, the reaction is stopped by the addition of 3% phosphoric acid solution. A 10 μL aliquot of the reaction is then spotted onto a P30 filtermat and washed three times for 5 minutes in 75 mM phosphoric acid and once in methanol prior to drying and scintillation counting.

[5] = molecular target: T2, PKG1α (h) (Homo sapiens, UniProt Q13976); experiment: PKG1α kinase activity assay, cell free; format: biochemical
T2 construct: purchased Eurofins Pharma Discovery Services UK Ltd (contract assay service)
T2 sequence (Q13976 1-671): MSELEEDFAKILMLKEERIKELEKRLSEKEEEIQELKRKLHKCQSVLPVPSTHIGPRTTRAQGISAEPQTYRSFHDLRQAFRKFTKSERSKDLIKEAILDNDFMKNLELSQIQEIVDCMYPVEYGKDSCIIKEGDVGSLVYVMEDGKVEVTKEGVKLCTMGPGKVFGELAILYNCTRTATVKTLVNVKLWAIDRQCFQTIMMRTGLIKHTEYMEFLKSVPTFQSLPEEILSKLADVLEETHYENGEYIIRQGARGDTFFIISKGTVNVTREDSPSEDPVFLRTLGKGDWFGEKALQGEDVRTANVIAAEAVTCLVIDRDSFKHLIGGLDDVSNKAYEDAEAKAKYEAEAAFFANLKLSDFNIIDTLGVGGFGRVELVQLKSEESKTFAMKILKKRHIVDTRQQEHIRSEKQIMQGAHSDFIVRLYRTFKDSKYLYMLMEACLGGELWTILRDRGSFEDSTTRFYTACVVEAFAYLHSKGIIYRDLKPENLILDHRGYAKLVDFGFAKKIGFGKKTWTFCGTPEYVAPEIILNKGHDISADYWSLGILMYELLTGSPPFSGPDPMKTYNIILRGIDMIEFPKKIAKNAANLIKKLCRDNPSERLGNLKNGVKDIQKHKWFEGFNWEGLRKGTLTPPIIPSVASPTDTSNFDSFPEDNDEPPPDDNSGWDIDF
Procedure: as §1, §2, §3
as §4, with “PKG1α (h)” for “c-Src (h)”, “EDTA, 10” for “EDTA, 250”, “μM cGMP, 200 μM peptide RRRLSFAEPG,” for “μM KVEKIGEGTYGVVYK (Cdc2 peptide),”, “mM magnesium acetate” for “mM MgAcetate”, “5 mins” for “5 minutes”

With `N=C(N)NCCC[C@H](NC(=O)[C@H](CCCNC(=N)N)NC(=O)[C@H](CCCNC(=N)N)NC(=O)[C@H](CCCNC(=N)N)NC(=O)[C@H](CCCNC(=N)N)NC(=O)[C@H](CCCNC(=N)N)NC(=O)[C@H](CCCNC(=N)N)NC(=O)[C@H](CCCNC(=N)N)NC(=O)[C@H](CCCNC(=N)N)NC(=O)[C@H](CCCNC(=N)N)NC(=O)[C@H](CCCNC(=N)N)NC(=O)[C@H](CCCNC(=N)N)NC(=O)[C@H](CCCNC(=N)N)NC(=O)[C@@H](N)CCCNC(=N)N)C(N)=O` [IK01400, RRRRRRRRRRRRRR-NH2] the alertness of animals ([1]; all time points) was “alert at all time points”, the “grip strength compared to vehicle control” value ([1]; intra-peritoneal, CFA study) was “no difference” and the remaining at 1 h ([2]; pig, simulated gastric fluid with porcine pepsin, simulated gastric fluid pH 2.01, 1 hr, read-out: % of intact peptide observed) was 99.5%. For the same compound, the remaining at 4 h ([2]; pig, simulated gastric fluid with porcine pepsin, simulated gastric fluid pH 2.01, 4 hrs, read-out: % of intact peptide observed) was 98.5%, the remaining at 24 h ([2]; pig, simulated gastric fluid with porcine pepsin, simulated gastric fluid pH 2.01, 24 hrs, read-out: % of intact peptide observed) was 98.2% and the “% of intact peptide observed” value ([2]; simulated gastric fluid pH 2.01, time 0) was 98.51%. For the same compound, the “alleviation of inflammatory pain” value ([3]; mice, both doses of the peptide employed) was “alleviated pain”, the hyperactivity ([3]; mice, intra-peritoneal) was “no hyperactivity was observed” and the “time at which peak effect was reached following administration” value ([3]; mice, intra-peritoneal) was over 1 h. For the same compound, the “effectiveness in incapacitance test, morphine versus IK01400 (8.6 mg/kg)” value ([3]; second hour after administration) was “more effective than morphine”, the IC50 [4] was 5.5 nM and the IC50 [5] was 6.7 nM. The “PKG1α IC50” value ([5]; cell free, 10 μM cGMP, 40 minutes at room temperature) was “single digit nanomolar range”.
